Measured values: patent US9844226B2 (AJINOMOTO CO., INC., priority 2009, dated 2017)
Entries after “also recorded” stand apart in the source; their conditions may differ.

Key:
panelists [1] = assay: Quantitative sensory evaluation test of kokumi-imparting activity; assay type: in vivo, human
Description: This quantitative sensory evaluation test was carried out as follows: The strength of the kokumi-imparting activity was measured for the cases where the test compound was mixed at concentrations of 0.001 to 0.5 g/dL with distilled water containing sodium glutamate (0.05 g/dL), inosine monophosphate (0.05 g/dL), and sodium chloride (0.5 g/dL). After the test compound was dissolved, samples more acidic than a control with no added test compound were adjusted, before further use, with NaOH to have a pH in a range of ±0.2 from the pH of the control with no added test compound. The sensory evaluation scores were as follows: control: 0 points; strong: 3 points; very strong: 5 points. The sensory evaluation was carried out using n (the number of panelists)=4. Moreover, to clarify the scale, the initial taste and the middle/after taste of γ-[…] at 0.001 g/dL were both set as 3.0 points. The term “middle/after taste” refers to the taste perceived during the period which includes the middle taste and the after taste. For the scoring, a linear scale method was employed. In this method, the score was marked as a position on a straight line showing positions for scores ranging from -5 0 5.

panelists [2] = assay: Strength of kokumi-imparting activity by Point of Subjective Equality (PSE), limit-determining technique; assay type: in vivo, human; settings: from PSE
Description: The intensity of the kokumi-imparting activity of γ-Glu-Abu was determined by Point of Subjective Equality (PSE) according to the limit-determining technique (“Statistical Sensory Examination techniques”, written by SATO Shin, published by Japan Federation of Science and Technology). The sensory evaluation was carried out as follows: Distilled water containing sodium glutamate (0.05 g/dL), inosine monophosphate (0.05 g/dL) and sodium chloride (0.5 g/dL) was used as the solution for the sensory evaluation. […] To determine the concentration of γ-Glu-Val at which the strength of taste is the same as that of a solution obtained by causing the solution for the sensory evaluation to contain 0.005 g/dL of γ-[…] solutions were prepared with a concentration that varied on a 50% logarithmic scale by using a solution obtained by causing the solution for the sensory evaluation, to contain 0.01 g/dL of γ-Glu-Val as a standard. The concentrations of γ-Glu-Val was set to 7 values ranging from 0.0030 to 0.0337 g/dL. After the test substance was dissolved, samples more acidic than the control with no added test substance were adjusted, before further use, with NaOH to have a pH in a range of ±0.2 as compared to the pH of the control with no added test substance. The solutions were presented to eighteen panelists in ascending order of the γ-Glu-Val concentration. The evaluation was carried out until each panelist perceived that the strength was higher than that of the 0.005 g/dL γ-Glu-Abu solution. After a certain interval, the solutions were next presented to the eighteen panelists in descending order of the γ-Glu-Val concentration. The evaluation was carried out until each panelist perceived that the strength was lower than that of the 0.005 g/dL γ-Glu-Abu solution. In this sensory evaluation, the panelists were experienced in the development of food products. When the lower and upper threshold values were the same, there was no γ-Glu-Val concentration at which the difference between the perception that the strength was lower, and the perception that the strength was higher, was uncertain. […] Each confidence threshold (average) is an average of the lower thresholds and the upper thresholds. The point of subjective equality (PSE) of γ-Glu-Val to 50 ppm (0.0050 g/dL) of γ-Glu-Abu is expressed as follows: (the sum of the confidence threshold of the lower thresholds and that of the upper threshold value)/2.

[3] = Stability (statement only); assay type: physicochemical; settings: compared with γ-Glu-Cys
panelists [4] = assay: Sensory evaluation of salty taste in low salt chicken stock, use in combination with an organic acid; assay type: in vivo, human; settings: γ-Glu-Abu 0.0040 g/dL in low salt chicken stock (salt 0.48 g/dL); control = 3, 1.25x salt = 4, 1.5x salt = 5; n=6
Description: The sensory evaluation tests were carried out as follows. […] A test compound in an appropriate amount was dissolved in the solution, and the salty taste strength was measured. No pH adjustment is necessary, such as the lowering of the pH, because there is no difference in pH between the solution after dissolving each test compound and the control without any added compound. […] To clarify the scale, the sensory evaluation scores were set as follows: the salty taste of the control: 3 points; the salty taste of a soup with increased salt concentration by 1.25 times as compared to that of control: 4 points; and the salty taste of a soup with increased salt concentration by 1.5 times as compared to that of the control: 5 points. The sensory evaluation was carried out using a panel of n (the number of panelists)=6. For the scoring a linear scale method was used. In this method, the score was marked as a position on a straight line showing positions for scores ranging from 1 3 5. The panelists used in this test were persons who had been engaged in the development of seasonings for foods for at least one year or longer in total, and who were capable of determining that the difference in potency between γ-[…] and γ-[…] each added to an umami and salty taste solution was around 10 times, while confirming the ability of these persons at regular intervals.

panelists [5] = assay: Quantitative sensory evaluation test of salty taste enhancement; assay type: in vivo, human
Description: After the test compound was dissolved, samples more acidic than a control containing no added test compound were adjusted, before further use, with NaOH to have a pH in a range of ±0.2 from the pH of the control to which no test compound was added.
The sensory evaluation scores were as follows, the control to which no test compound was added, i.e. a 0.5 g/dL sodium chloride solution: 0 points; a 0.75 g/dL sodium chloride solution: 5 points. The sensory evaluation was conducted on a scale ranging from −5 to 0 to 5, with n=5. The “initial taste” refers to the taste perceived by each panelist from the start of eating the sample to 2 seconds thereafter, while the term “middle/after taste” refers to that perceived by each panelist from 2 seconds on and after eating the same, i.e. perceived during the period including both the middle taste and the after taste. For the scoring, a linear scale method was used. In this method, the score was marked as a position on a straight line showing positions for scores ranging from −5˜0˜5. The panelists were persons who were engaged in the development of seasonings for foods for one year or longer in total, and who were capable of determining that the difference in the potency between γ-Glu-Cys-Gly and γ-Glu-Val-Gly each added to a umami taste and salty taste solution was around 10 times, while confirming the ability of these persons at regular intervals.

[6] = 0.005 g/dL in water with MSG 0.05, IMP 0.05, NaCl 0.5 g/dL, scale -5~0~5, n=4
[7] = 0.004 g/dL in 0.5 g/dL NaCl, 0.5 g/dL NaCl = 0, 0.75 g/dL NaCl = 5, n=5

CC[C@H](NC(=O)CC[C@H](N)C(=O)O)C(=O)O
Strength of Kokumi Impartment, Initial Taste (panelists [1]; [6]): 3.8 points | Strength of Kokumi Impartment, Middle/After Taste (panelists [1]; [6]): 3.2 points | Kokumi-imparting potency (in words) (panelists [1]; in vivo): extremely high potency; also recorded: excellent kokumi-imparting activity | Strength of γ-Glu-Abu relative to γ-Glu-Val (panelists [2]): approximately 2.4 times | Stability (in words) [3]: excellent in stability | Str. of Salty Taste (score) (panelists [4]): 3.56 score | Sensory Evaluation Profile (salty taste) (panelists [5]; 0.004 g/dL in 0.5 g/dL NaCl): The salty taste was enhanced | Strength of Salty Taste Impartment, Initial Taste (panelists [5]; [7]): 1.6 points | Strength of Salty Taste Impartment, Middle/After Taste (panelists [5]; [7]): 1.5 points | Salty taste enhancement ability (in words) (panelists [5]; comparison of γ-Glu-Val-Gly and γ-Glu-Abu): extremely well balanced salty taste enhancement
